In PubChem BioAssay (NCI):
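48-hour exposure; five concentrations; linearly interpolated endpoints. The concentration for full growth arrest is given as TGI.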

Key:
Experiment in all cases: inhibition of tumour cell growth, NCI panel, 48 h
HCC-2998 colon = tested on: HCC-2998 colon
XF 498 CNS = tested on: XF 498 CNS
HCT-116 colon = tested on: HCT-116 colon
DMS 273 small cell lung = tested on: DMS 273 small cell lung
KM20L2 colon = tested on: KM20L2 colon
SF-539 CNS = tested on: SF-539 CNS
DLD-1 colon = tested on: DLD-1 colon
MALME-3M melanoma = tested on: MALME-3M melanoma
HOP-18 NSCLC = tested on: HOP-18 NSCLC
SK-MEL-5 melanoma = tested on: SK-MEL-5 melanoma
HOP-92 NSCLC = tested on: HOP-92 NSCLC
SK-OV-3 ovarian = tested on: SK-OV-3 ovarian
SW-620 colon = tested on: SW-620 colon
CCRF-CEM leukemia = tested on: CCRF-CEM leukemia
SNB-75 CNS = tested on: SNB-75 CNS
OVCAR-4 ovarian = tested on: OVCAR-4 ovarian
OVCAR-8 ovarian = tested on: OVCAR-8 ovarian
TK-10 renal = tested on: TK-10 renal
RXF 393 renal = tested on: RXF 393 renal
UACC-62 melanoma = tested on: UACC-62 melanoma
LOX IMVI melanoma = tested on: LOX IMVI melanoma
NCI-H522 lung = tested on: NCI-H522 lung
A549 NSCLC = tested on: A549 NSCLC
U251 CNS = tested on: U251 CNS
OVCAR-5 ovarian = tested on: OVCAR-5 ovarian
LXFL 529 NSCLC = tested on: LXFL 529 NSCLC
HOP-62 NSCLC = tested on: HOP-62 NSCLC
HCT-15 colon = tested on: HCT-15 colon
NCI-H23 lung = tested on: NCI-H23 lung
M14 melanoma = tested on: M14 melanoma
UACC-257 melanoma = tested on: UACC-257 melanoma
ACHN renal = tested on: ACHN renal
UO-31 renal = tested on: UO-31 renal
SR leukemia = tested on: SR leukemia
NCI-H226 lung = tested on: NCI-H226 lung
MOLT-4 leukemia = tested on: MOLT-4 leukemia
SNB-19 CNS = tested on: SNB-19 CNS
IGROV1 ovarian = tested on: IGROV1 ovarian
EKVX NSCLC = tested on: EKVX NSCLC
K-562 leukemia = tested on: K-562 leukemia
SF-295 CNS = tested on: SF-295 CNS
SNB-78 CNS = tested on: SNB-78 CNS
A498 renal = tested on: A498 renal
RXF-631 renal = tested on: RXF-631 renal
OVCAR-3 ovarian = tested on: OVCAR-3 ovarian
SK-MEL-2 melanoma = tested on: SK-MEL-2 melanoma
SF-268 CNS = tested on: SF-268 CNS
DMS 114 small cell lung = tested on: DMS 114 small cell lung
KM12 colon = tested on: KM12 colon
SK-MEL-28 melanoma = tested on: SK-MEL-28 melanoma
SN12C renal = tested on: SN12C renal
NCI-H460 lung = tested on: NCI-H460 lung
CAKI-1 renal = tested on: CAKI-1 renal
COLO 205 colon = tested on: COLO 205 colon
M19-MEL melanoma = tested on: M19-MEL melanoma
786-0 renal = tested on: 786-0 renal
HT29 colon = tested on: HT29 colon
RPMI-8226 leukemia = tested on: RPMI-8226 leukemia
HL-60(TB) leukemia = tested on: HL-60(TB) leukemia

O=C(c1ccccc1)c1ccc(OCCOc2ccc(Nc3ccccc3)cc2)cc1
TGI (HCC-2998 colon): > 100 µM
TGI (XF 498 CNS): 48.4 µM
TGI (HCT-116 colon): > 100 µM
TGI (DMS 273 small cell lung): > 100 µM
TGI (KM20L2 colon): > 100 µM
TGI (SF-539 CNS): > 100 µM
TGI (DLD-1 colon): > 100 µM
TGI (MALME-3M melanoma): 71 µM
TGI (HOP-18 NSCLC): > 100 µM
TGI (SK-MEL-5 melanoma): > 100 µM
TGI (HOP-92 NSCLC): 73.5 µM
TGI (SK-OV-3 ovarian): 64.4 µM
TGI (SW-620 colon): > 100 µM
TGI (CCRF-CEM leukemia): > 100 µM
TGI (SNB-75 CNS): 33.4 µM
TGI (OVCAR-4 ovarian): 54.8 µM
TGI (OVCAR-8 ovarian): > 100 µM
TGI (TK-10 renal): 84.3 µM
TGI (RXF 393 renal): 67.3 µM
TGI (UACC-62 melanoma): > 100 µM
TGI (LOX IMVI melanoma): > 100 µM
TGI (NCI-H522 lung): 53.3 µM
TGI (A549 NSCLC): > 100 µM
TGI (U251 CNS): 57.1 µM
TGI (OVCAR-5 ovarian): > 100 µM
TGI (LXFL 529 NSCLC): > 100 µM
TGI (HOP-62 NSCLC): 81.2 µM
TGI (HCT-15 colon): > 100 µM
TGI (NCI-H23 lung): > 100 µM
TGI (M14 melanoma): > 100 µM
TGI (UACC-257 melanoma): > 100 µM
TGI (ACHN renal): 84.3 µM
TGI (UO-31 renal): > 100 µM
TGI (SR leukemia): > 100 µM
TGI (NCI-H226 lung): > 100 µM
TGI (MOLT-4 leukemia): > 100 µM
TGI (SNB-19 CNS): > 100 µM
TGI (IGROV1 ovarian): > 100 µM
TGI (EKVX NSCLC): > 100 µM
TGI (K-562 leukemia): > 100 µM
TGI (SF-295 CNS): 93.9 µM
TGI (SNB-78 CNS): > 100 µM
TGI (A498 renal): 79 µM
TGI (RXF-631 renal): 82.8 µM
TGI (OVCAR-3 ovarian): > 100 µM
TGI (SK-MEL-2 melanoma): > 100 µM
TGI (SF-268 CNS): > 100 µM
TGI (DMS 114 small cell lung): > 100 µM
TGI (KM12 colon): > 100 µM
TGI (SK-MEL-28 melanoma): > 100 µM
TGI (SN12C renal): > 100 µM
TGI (NCI-H460 lung): > 100 µM
TGI (CAKI-1 renal): > 100 µM
TGI (COLO 205 colon): > 100 µM
TGI (M19-MEL melanoma): > 100 µM
TGI (786-0 renal): > 100 µM

O=C(N/C(=C\c1cccc([N+](=O)[O-])c1)c1nc2[nH]c(=S)[nH]c(=O)c2[nH]1)c1ccccc1
TGI (HCC-2998 colon): > 100 µM
TGI (XF 498 CNS): > 100 µM
TGI (HCT-116 colon): > 100 µM
TGI (KM20L2 colon): > 100 µM
TGI (SF-539 CNS): > 100 µM
TGI (DLD-1 colon): > 100 µM
TGI (MALME-3M melanoma): > 100 µM
TGI (HOP-18 NSCLC): > 100 µM
TGI (SK-MEL-5 melanoma): > 100 µM
TGI (HOP-92 NSCLC): > 100 µM
TGI (SK-OV-3 ovarian): > 100 µM
TGI (SW-620 colon): > 100 µM
TGI (CCRF-CEM leukemia): > 100 µM
TGI (SNB-75 CNS): > 100 µM
TGI (OVCAR-4 ovarian): > 100 µM
TGI (OVCAR-8 ovarian): > 100 µM
TGI (RXF 393 renal): > 100 µM
TGI (UACC-62 melanoma): > 100 µM
TGI (LOX IMVI melanoma): > 100 µM
TGI (NCI-H522 lung): > 100 µM
TGI (A549 NSCLC): > 100 µM
TGI (U251 CNS): > 100 µM
TGI (HT29 colon): > 100 µM
TGI (OVCAR-5 ovarian): > 100 µM
TGI (LXFL 529 NSCLC): > 100 µM
TGI (HOP-62 NSCLC): > 100 µM
TGI (HCT-15 colon): > 100 µM
TGI (NCI-H23 lung): > 100 µM
TGI (M14 melanoma): > 100 µM
TGI (UACC-257 melanoma): > 100 µM
TGI (ACHN renal): > 100 µM
TGI (UO-31 renal): > 100 µM
TGI (SR leukemia): > 100 µM
TGI (NCI-H226 lung): > 100 µM
TGI (MOLT-4 leukemia): > 100 µM
TGI (SNB-19 CNS): > 100 µM
TGI (IGROV1 ovarian): > 100 µM
TGI (EKVX NSCLC): > 100 µM
TGI (RPMI-8226 leukemia): > 100 µM
TGI (K-562 leukemia): > 100 µM
TGI (SF-295 CNS): > 100 µM
TGI (SNB-78 CNS): > 100 µM
TGI (A498 renal): > 100 µM
TGI (RXF-631 renal): > 100 µM
TGI (OVCAR-3 ovarian): > 100 µM
TGI (SK-MEL-2 melanoma): > 100 µM
TGI (SF-268 CNS): > 100 µM
TGI (DMS 114 small cell lung): > 100 µM
TGI (KM12 colon): > 100 µM
TGI (SK-MEL-28 melanoma): > 100 µM
TGI (SN12C renal): > 100 µM
TGI (HL-60(TB) leukemia): > 100 µM
TGI (NCI-H460 lung): > 100 µM
TGI (CAKI-1 renal): > 100 µM
TGI (COLO 205 colon): > 100 µM
TGI (M19-MEL melanoma): > 100 µM
TGI (786-0 renal): > 100 µM
